Patent publication US20230172899A1, “CANNABINOID COMPOSITIONS” (priority 2020, published 2023)
In brackets after ≈: the same amount, converted by molar mass. Where two headings read alike, the source gives them in different places.

How the values were obtained:
[1] = system: store-operated calcium entry (SOCE) in RBL-2H3 rat mast cells; test: SOCE inhibition, Fura-2 Ca2+ bioassay, thapsigargin-induced, RBL-2H3 cells; assay type: cell-based; settings: for IC50: Rattus norvegicus
[2] = system: store-operated calcium entry (SOCE) in Jurkat T cells; test: SOCE inhibition, Fura-2 Ca2+ bioassay, thapsigargin-induced, Jurkat cells; assay type: cell-based, human; settings: for IC50: Homo sapiens; for Combinatory effect on SOCE inhibition when paired with CBGA: isobolographic analysis, pairs expected to inhibit 50%
[3] = system: store-operated calcium entry (SOCE) in U937 monocytes; test: SOCE inhibition, Fura-2 Ca2+ bioassay, thapsigargin-induced, U937 cells; assay type: cell-based, human; settings: for IC50: Homo sapiens
[4] = system: store-operated calcium entry (SOCE) in HEK293 cells; test: SOCE inhibition, Fura-2 Ca2+ bioassay, thapsigargin-induced, HEK293 cells; assay type: cell-based, human; settings: for IC50: Homo sapiens; for Inhibitory effect in immune cells compared with non-immune HEK293 cells: Jurkat vs HEK293 screening, 10 μM
[5] = system: store-operated calcium entry (SOCE) in Luva human mast cells; test: SOCE inhibition, Fura-2 Ca2+ bioassay, thapsigargin-induced, Luva cells; assay type: cell-based; settings: for IC50: Homo sapiens, Mast cell, read-out: IC50 SOCE Luva
[6] = RBL-2H3, read-out: IC50 SOCE RBL-2H3, Table 5, individual cannabinoids, RBL-2H3
[7] = Jurkat, read-out: IC50 SOCE Jurkat, Table 5, individual cannabinoids, Jurkat
[8] = U-937, read-out: IC50 SOCE U937, Table 5, individual cannabinoids, U937
[9] = HEK293, read-out: IC50 SOCE HEK-293, Table 5, individual cannabinoids, HEK-293

`CCCCCc1cc(O)c2c(c1)OC(C)(CCC=C(C)C)C=C2` (centres unmarked) [CBC, 2-methyl-2-(4-methylpent-3-en-1-yl)-7-pentyl-2H-chromen-5-ol] was tested, and the “IC50 SOCE RBL-2H3” value ([1]; Table 5, individual cannabinoids, RBL-2H3) was 26.8 µg/mL (≈ 85.2 µM), the “IC50 SOCE Jurkat” value ([2]; Table 5, individual cannabinoids, Jurkat) was 13.06 µg/mL (≈ 41.5 µM) and the “IC50 SOCE U937” value ([3]; Table 5, individual cannabinoids, U937) was 40.8 µg/mL (≈ 130 µM). For the same compound, the “IC50 SOCE HEK-293” value ([4]; Table 5, individual cannabinoids, HEK-293) was 31.6 µg/mL (≈ 100 µM) and the “IC50 SOCE Luva” value ([5]; Table 5, individual cannabinoids, Luva) was >50 µg/mL.

For `CCCc1cc(O)c2c(c1)OC(C)(C)[C@@H]1CCC(C)=C[C@@H]21` [THCV, (6aR,10aR)-6,6,9-trimethyl-3-propyl-6a,7,8,10a-tetrahydro-6H-benzo[c]chromen-1-ol], the IC50 [1, 6] was > 50 µg/mL, the IC50 [2, 7] was 10.7 µg/mL (≈ 37.5 µM) and the “Combinatory effect on SOCE inhibition when paired with CBGA” value (shortened to “Combinatory effect on SOCE inhibition”) ([2]; Jurkat cells) was “stronger than predicted inhibitions”. For the same compound, the IC50 [3, 8] was > 50 µg/mL, the IC50 [4, 9] was > 50 µg/mL and the “Inhibitory effect in immune cells compared with non-immune HEK293 cells” value [4] was “selective”. For the same compound, the IC50 [5] was > 50 µg/mL.

In the case of `C=C(C)[C@@H]1CCC(C)=C[C@H]1c1c(O)cc(CCC)cc1O` [CBDV, (1′R,2′R)-5′-methyl-2′-(prop-1-en-2-yl)-4-propyl-1′,2′,3′,4′-tetrahydro-[1,1′-biphenyl]-2,6-diol], the IC50 [1, 6] is reported as 0.17 µg/mL (≈ 0.594 µM), the IC50 [2, 7] is reported as 6 µg/mL (≈ 20.9 µM) and the “Combinatory effect on SOCE inhibition” value ([2]; Jurkat cells) is reported as “inhibit less than predicted”. For the same compound, the IC50 [3, 8] was 17.5 µg/mL (≈ 61.1 µM), the IC50 [4, 9] was 30.2 µg/mL (≈ 105 µM) and the “Inhibitory effect in immune cells compared with non-immune HEK293 cells” value [4] was “selective”. For the same compound, the IC50 [5] was > 50 µg/mL.

With `CCCCCc1cc(O)c2c(c1)OC(C)(C)[C@@H]1CCC(C(=O)O)=C[C@@H]21` [11-nor-COOH-Δ9-THC, (6aR,10aR)-1-hydroxy-6,6-dimethyl-3-pentyl-6a,7,8,10a-tetrahydro-6H-benzo[c]chromene-9-carboxylic acid] the “Inhibitory effect in immune cells compared with non-immune HEK293 cells” value [4] was “selective”.

In the case of `C=C(C)[C@@H]1CCC(C)=C[C@H]1c1c(O)cc(CCC)c(C(=O)O)c1O` [CBDVA, (1′R,2′R)-2,6-dihydroxy-5′-methyl-2′-(prop-1-en-2-yl)-4-propyl-1′,2′,3′,4′-tetrahydro-[1,1′-biphenyl]-3-carboxylic acid], the IC50 ([1]; RBL-2H3, read-out: IC50 SOCE RBL-2H3) is reported as 11.3 µg/mL (≈ 34.3 µM), the IC50 ([2]; Jurkat, read-out: IC50 SOCE Jurkat) is reported as 11.3 µg/mL (≈ 34.2 µM) and the “Combinatory effect on SOCE inhibition” value ([2]; Jurkat cells) is reported as “inhibit less than predicted”. The IC50 ([3]; U-937, read-out: IC50 SOCE U937) was 10.6 µg/mL (≈ 32.2 µM), the IC50 ([4]; HEK293, read-out: IC50 SOCE HEK-293) was 23.5 µg/mL (≈ 71.2 µM) and the IC50 [5] was 8.45 µg/mL (≈ 25.6 µM).

`CCCCCc1cc(O)c2c(c1)O[C@]1(C)CCC3[C@@H]1[C@@H]2C3(C)C` (stereo partly drawn) [CBL, (1aS,1a1R,3aR,8bR)-1,1,3a-trimethyl-6-pentyl-1a,1a1,2,3,3a,8b-hexahydro-1H-4-oxabenzo[f]cyclobuta[cd] inden-8-ol] was tested, and the IC50 [1, 6] was > 50 µg/mL, the IC50 [2, 7] was > 50 µg/mL and the “Combinatory effect on SOCE inhibition” value ([2]; Jurkat cells) was “Simple additive behavior”. For the same compound, the IC50 [3, 8] was > 50 µg/mL, the IC50 [4, 9] was > 50 µg/mL and the IC50 [5] was > 50 µg/mL.

`CCCCCc1cc(OC)c2c(c1)OC(C)(C)c1ccc(C)cc1-2` [CBNM, 1-methoxy-6,6,9-trimethyl-3-pentyl-6H-benzo[c]chromene] was tested, and the IC50 [1, 6] was > 50 µg/mL, the IC50 [2, 7] was > 50 µg/mL and the IC50 [3, 8] was > 50 µg/mL. The IC50 [4, 9] was > 50 µg/mL and the IC50 [5] was > 50 µg/mL.

For `CCCCCc1cc2c(c(O)c1C(=O)O)C=C[C@@](C)(CCC=C(C)C)O2` [CBCA, (R)-5-hydroxy-2-methyl-2-(4-methylpent-3-en-1-yl)-7-pentyl-2H-chromene-6-carboxylic acid], the IC50 [1, 6] was > 50 µg/mL, the IC50 [2, 7] was 1.13 µg/mL (≈ 3.15 µM) and the “Combinatory effect on SOCE inhibition” value ([2]; Jurkat cells) was “Simple additive behavior”. For the same compound, the IC50 [3, 8] was > 50 µg/mL, the IC50 [4, 9] was > 50 µg/mL and the IC50 [5] was 29.1 µg/mL (≈ 81.3 µM).

With `CCCCCc1cc(O)c2c(c1)OC(C)(C)[C@@H]1CCC(C)=C[C@@H]21` [Δ9-THC, (6aR,10aR)-6,6,9-trimethyl-3-pentyl-6a,7,8,10a-tetrahydro-6H-benzo[c]chromen-1-ol] the IC50 [1, 6] was 0.97 µg/mL (≈ 3.08 µM), the IC50 [2, 7] was > 50 µg/mL and the “Effect on SOCE (Ca2+ signals), pure compounds” value ([2]; Jurkat cells, compounds at 10 μM, 1 μM thapsigargin) was “low to no effects”. The “IC50 on SOCE relative to acidic variations” value ([2]; Jurkat cells, dose response 0 to 30 μM) was “higher IC50 than their acidic variations”, the IC50 [3, 8] was > 50 µg/mL and the IC50 [4, 9] was > 50 µg/mL. The IC50 [5] was > 50 µg/mL.
